Where two headings read alike, the source gives them in different places.
Assays:
[1] = Lipid peroxidation inhibition (LPI) assay; parameters: species or system bovine; conditions: sodium nitroprusside as pro-oxidant, 37 °C 2 h, MDA at 532 nm
[2] = Nitric oxide (NO) radical-scavenging assay; conditions: sodium nitroprusside, 2.5 h 25 °C, Griess reagent, 540 nm
[3] = molecular target: human acetylcholinesterase (hAChE) (Homo sapiens, UniProt P22303); test: biochemical
[4] = DPPH free radical-scavenging assay; conditions: 37 °C, 40 min, 517 nm
[5] = Hydroxyl radical-scavenging assay; conditions: Fenton reaction, 45 min 37 °C, 532 nm
[6] = molecular target: T1, human butyrylcholinesterase (hBuChE) (Homo sapiens, UniProt P06276); test: biochemical
T1 construct: purchased Sigma B4186
T1 sequence (P06276 29-602): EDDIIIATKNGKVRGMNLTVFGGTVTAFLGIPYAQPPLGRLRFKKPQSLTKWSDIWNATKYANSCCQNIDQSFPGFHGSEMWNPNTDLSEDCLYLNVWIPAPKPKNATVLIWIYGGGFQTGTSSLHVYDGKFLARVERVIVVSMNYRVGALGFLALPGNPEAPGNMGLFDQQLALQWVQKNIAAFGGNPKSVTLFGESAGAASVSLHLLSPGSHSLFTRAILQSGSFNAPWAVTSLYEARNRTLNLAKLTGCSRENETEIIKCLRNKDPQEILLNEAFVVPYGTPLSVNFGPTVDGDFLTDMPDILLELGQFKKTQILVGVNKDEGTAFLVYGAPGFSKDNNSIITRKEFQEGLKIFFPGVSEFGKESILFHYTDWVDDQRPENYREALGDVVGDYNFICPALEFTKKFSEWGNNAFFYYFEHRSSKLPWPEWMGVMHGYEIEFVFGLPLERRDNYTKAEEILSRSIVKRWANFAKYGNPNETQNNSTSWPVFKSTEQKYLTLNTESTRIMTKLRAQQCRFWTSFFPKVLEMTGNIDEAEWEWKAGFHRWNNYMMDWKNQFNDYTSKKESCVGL

[7] = molecular target: T2, butyrylcholinesterase from horse (equine) serum (esBuChE) (Equus caballus, UniProt P81908); test: biochemical
T2 construct: butyrylcholinesterase from horse (equine) serum (esBuChE); purchased Sigma C7512; host or cells: horse serum
T2 sequence (P81908 whole entry): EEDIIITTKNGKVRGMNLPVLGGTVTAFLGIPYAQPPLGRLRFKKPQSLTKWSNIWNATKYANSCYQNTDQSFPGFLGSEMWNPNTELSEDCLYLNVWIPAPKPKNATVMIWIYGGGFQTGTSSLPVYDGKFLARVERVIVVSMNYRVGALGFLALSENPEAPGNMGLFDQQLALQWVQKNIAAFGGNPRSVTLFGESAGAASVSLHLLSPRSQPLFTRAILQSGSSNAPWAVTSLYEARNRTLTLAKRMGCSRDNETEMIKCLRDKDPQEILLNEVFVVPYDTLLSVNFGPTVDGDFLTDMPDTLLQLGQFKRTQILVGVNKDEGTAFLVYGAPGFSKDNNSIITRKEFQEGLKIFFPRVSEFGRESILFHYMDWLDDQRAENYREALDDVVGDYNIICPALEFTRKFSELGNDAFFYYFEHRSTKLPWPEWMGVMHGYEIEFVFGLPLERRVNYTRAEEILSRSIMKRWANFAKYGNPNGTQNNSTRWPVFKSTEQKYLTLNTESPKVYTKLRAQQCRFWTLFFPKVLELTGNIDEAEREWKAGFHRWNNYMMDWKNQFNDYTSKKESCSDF

[8] = ABTS radical-scavenging assay; conditions: 5 min in the dark, 750 nm
[9] = Ferric reducing antioxidant power (FRAP) assay; conditions: 700 nm
hAChE = test system: hAChE; parameters: method as in PMID 32746727; conditions: ref [59]; read-out: IC50 against hAChE; cited from earlier work
BuChE [10] = conditions: ref [55],[56],[57]; cited from earlier work
AChE [11] = conditions: ref [55],[56],[57]; cited from earlier work
AChE [12] = conditions: rat brain homogenates, in vitro; ref [62]; cited from earlier work
BuChE [13] = conditions: rat brain homogenates, in vitro; ref [62]; cited from earlier work
[14] = ref [62]; read-out: IC50 values, panel of antioxidant assays; cited from earlier work

human acetylcholinesterase (hAChE), sequence (P22303 32-614): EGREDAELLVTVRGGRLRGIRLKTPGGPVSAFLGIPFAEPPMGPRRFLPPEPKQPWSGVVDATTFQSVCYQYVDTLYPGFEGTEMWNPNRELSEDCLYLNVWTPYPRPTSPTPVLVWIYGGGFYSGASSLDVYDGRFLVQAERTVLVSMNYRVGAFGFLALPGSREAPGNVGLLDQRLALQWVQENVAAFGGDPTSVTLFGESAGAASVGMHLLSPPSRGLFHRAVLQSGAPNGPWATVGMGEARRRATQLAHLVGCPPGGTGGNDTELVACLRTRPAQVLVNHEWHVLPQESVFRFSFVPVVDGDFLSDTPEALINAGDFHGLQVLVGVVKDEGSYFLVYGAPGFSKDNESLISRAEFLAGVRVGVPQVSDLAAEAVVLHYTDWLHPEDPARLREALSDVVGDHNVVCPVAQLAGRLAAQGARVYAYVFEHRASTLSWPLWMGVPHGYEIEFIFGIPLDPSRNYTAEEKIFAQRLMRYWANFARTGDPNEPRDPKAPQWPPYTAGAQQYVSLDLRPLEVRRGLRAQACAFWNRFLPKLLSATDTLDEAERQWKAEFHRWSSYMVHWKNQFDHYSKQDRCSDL

SMILES	EC50 [1]	EC50 [2]	IC50 ([3]; read-out: Enzyme IC50 hAChE)	EC50 [4]	EC50 [5]	EC50 [8]	EC50 [9]	IC50 [6]	IC50 [7]	further results
O=C(C=Cc1ccc(O)c(O)c1)OC1C(O)CC(O)(C(=O)O)CC1O (stereo not drawn) [4-O-caffeoylquinic acid]	207 ± 63 µM	125 ± 30 µM	782 ± 106 µM	431 ± 28 µM	120 ± 30 µM	382 ± 44 µM	1290 ± 45 µM	–	–	IC50 ([6]; read-out: Enzyme IC50 hBuChE): 770 ± 116 µM; IC50 ([7]; read-out: Enzyme IC50 esBuChE): 903 ± 139 µM
O=C(/C=C/c1ccc(O)c(O)c1)O[C@@H]1C[C@](O)(C(=O)O)C[C@@H](O)[C@H]1O [Chlorogenic acid]	–	–	> 1000 µM	–	–	–	–	–	–	IC50 ([6]; read-out: Enzyme IC50 hBuChE): > 1000 µM; IC50 ([7]; read-out: Enzyme IC50 esBuChE): > 1000 µM; IC50 (hAChE): 410 µM
CCN(CC)C(C)CN1c2ccccc2Sc2ccccc21 (stereo not drawn) [Ethopropazine, reference compound]	–	–	–	–	–	–	–	13.8 ± 0.8 µM	0.01 µM	–
O=C(O)c1cc(O)c(O)c(O)c1 [Gallic acid, reference compound]	372 ± 33 µM	972 ± 107 µM	–	86 ± 15 µM	80 ± 23 µM	53 ± 15 µM	1240 ± 49 µM	–	–	–
O=C1O[C@H]([C@@H](O)CO)C(O)=C1O [L-Ascorbic acid, L-ascorbic acid, reference compound]	182 ± 24 µM	720 ± 127 µM	–	–	–	526 ± 110 µM	–	–	–	–
O=c1c(O[C@@H]2O[C@H](CO)[C@@H](O)[C@H](O)[C@H]2O)c(-c2ccc(O)c(O)c2)oc2cc(O)cc(O)c12 [Quercetin 3-β-D-glucoside, quercetin 3-β-D-glucoside]	673 ± 165 µM	261 ± 77 µM	971 ± 157 µM	224 ± 27 µM	55 ± 12 µM	436 ± 32 µM	1780 ± 107 µM	931 ± 49 µM	> 1000 µM	–
C[C@@H]1O[C@@H](OC[C@H]2O[C@@H](Oc3c(-c4ccc(O)c(O)c4)oc4cc(O)cc(O)c4c3=O)[C@H](O)[C@@H](O)[C@@H]2O)[C@H](O)[C@H](O)[C@H]1O [Rutin, quercetin-3-rutinoside]	26 ± 3 µM	383 ± 87 µM	–	305 ± 55 µM	90 ± 21 µM	1720 ± 206 µM	1940 ± 131 µM	761 ± 106 µM	> 1000 µM	IC50 [3]: > 1000 µM; IC50 (AChE [12]): 219 µM; IC50 (BuChE [13]): 288 µM; IC50 [14]: 184 to 938 µM
Cc1c(C)c2c(c(C)c1O)CC[C@@](C)(CCC[C@H](C)CCC[C@H](C)CCCC(C)C)O2 [α-Tocopherol, α-tocopherol, reference compound]	–	368 ± 34 µM	–	369 ± 34 µM	53 ± 15 µM	414 ± 22 µM	–	–	–	–

From PMC12467246, “Characterization of the Anticholinesterase and Antioxidant Properties of Phytochemicals from Moringa oleifera as a Potential Treatment for Alzheimer’s Disease” (Biomedicines, 2025)
